# Results published in US20100160443A1, “COMPOUNDS USEFUL FOR TREATING NEUROLOGICAL DISORDERS” (Yissum Research Development Company of The Hebrew …, priority 2003, published 2010).
# Experiments:
# [1] = test system: maximal electroshock (MES) test; settings: rat, in vivo, po; cited from earlier work
# [2] = Plasma drug concentration and pharmacokinetics after i.p. administration to SNL operated rats; format: in vivo, rat; settings: for minimal plasma concentration associated with the antiallodynic effect: SNL rats; for CL/F / Cmax / MRT / Tmax / half-life: rat, ip
# Description: 0.5% MC, and […] of blood were collected from the amputated tail tip at each of three time points after injection. Blood was withdrawn for group 1 at 15, 60 and 180 min after dosing; for group 2 at 30, 90 and 240 min after dosing and for group 3 at 45, 120 and 360 min after dosing. Plasma was immediately separated by centrifugation at 3000 g for 15 min and stored at −20° C. until analyzed.
# Plasma levels of VPA and DID were determined by gas chromatography (GC). An HP5890 series II GC equipped with FID detector, HP7673 autosampler, for DID HP-5 capillary column (0.25 μm×15 m×0.25 mm) was used. The temperature program was as follows: injector temperature 250° C.; initial temperature, 60° C. for 3 min; gradient of 15° C. min-1 until 180° C.; hold 5 min. For each drug, plasma levels obtained from 3 rats at each time point were averaged. 25 μl of internal standard solution (50 mg L^−1 of VPD for the DID assay) and 200 μl of 0.1M NaOH were added to 50 μl of plasma. The mixture was vortexed, and 1 ml of chloroform was added. The phases were separated, and the chloroform was evaporated. The dry residue was redissolved in 50 μl of chloroform, and 1 μl was injected into the gas chromatograph. Calibration curves were prepared separately by spiking naïve rat plasma samples with 1.56, 2.5, 3.12, 6.25, 12.5, 25.0, 37.5, 50.0, 75.0 and 100.0 mg L^−1 of DID. The limit of quantification (LOQ) of the method was 1.56 μg/ml, and the coefficient of variation (CV %) was <15% at all analyzed concentrations including LOQ.
# The temperature program was as follows: injector temperature 280° C.; oven temperature, 135° C. 30 μl of internal standard solution (250 mg L-1 of 1-methyl-1cyclohexane carboxylic acid, MCCA, in MeOH) and 125 μl of 5N Hydrochloric acid (HCl) were added to 250 μl of plasma. The mixture was vortexed, and 2 ml of chloroform was added. The phases were separated, and the 1 ml of NaOH was added. 200 μl of HCl 5N and 2 ml of chloroform were added to the aqueous phase. The organic layer was evaporated and dry residue was redissolved in 50 μl of chloroform, and 30 μl was injected into the gas chromatograph. […] LOQ of the method was 25 mg L-1, and the coefficient of variation (CV %) was <15% at all analyzed concentrations including LOQ.
# PK parameters were determined by non-compartmental analysis using the pharmacokinetic software package WinNonlin, version 4.0.1 (SCI Software, Lexington, Ky., U.S.A.; Yamaoka, et al., 1978 (YAMAOKA, K., […], T., & UNO, T. (1978). Statistical moments in pharmacokinetics. J Pharmacokinet. Biopharm., 6, 547-558); Gibaldi & Perrier, 1982 (GIBALDI, M., & PERRIER, D. (1982). Pharmacokinetics (2nd ed.). pp. 199-219 Marcel Dekker: New York); Rowland & Tozer, 1995 (ROWLAND, M., & TOZER, T. (1995). Pharmacological Response. In: Clinical Pharamcokeintics. pp. 340-365) Baltimore: Williams & Wilkins)). The terminal half-life (t½) was calculated as 0.693/β, where β is the linear terminal slope of the concentration (C)-versus-time curve. The area under the C-versus-time curve (AUC) was calculated by trapezoidal rule with extrapolation to infinity. The mean residence time (MRT) was calculated from the quotient AUMC/AUC, where AUMC is the area under the concentration-time product versus time curve from zero to infinity. Total (apparent) clearance (CL/F) was calculated from the quotient of […] with F being the absolute bioavailability following i.p. administration. The apparent volume of distribution (Vβ/F) was calculated from the quotient of CL and β. The peak plasma concentration (Cmax) and the time to reach Cmax (tmax) were determined empirically by visual inspection.
# [3] = test system: neuropathic pain due to spinal cord injury; settings: double-blind placebo-controlled trial; cited from earlier work
# [4] = DID 40 mg kg^−1 i.p., plasma, SNL operated rats
minimal plasma concentration associated with the antiallodynic effect ([2]; VPA 300 mg kg^−1 i.p.),"CL/F ([2]; plasma, 300 mg/kg)","Cmax ([2]; plasma, 300 mg/kg)","MRT ([2]; plasma, 300 mg/kg)","Tmax ([2]; plasma, 300 mg/kg)","half-life ([2]; plasma, 300 mg/kg)",SMILES,MES-ED50 [1],minimal plasma concentration associated with the antiallodynic effect ([2]; DID 40 mg kg^−1 i.p.),"Vβ/F [2, 4]","CL/F [2, 4]","Cmax [2, 4]","MRT [2, 4]","Tmax [2, 4]","half-life [2, 4]",pain relief versus placebo [3]
–,–,–,–,–,–,"CC(C)C(C(N)=O)C(C)C [DID, diisopropylacetamide]",51 mg/kg,7 mg/L,1.2 L/kg,8.33 mL/min/kg,28 µg/mL,2.4 h,0.25 h,1.5 h,–
125 mg/L,3.33 mL/min/kg,515 µg/mL,5.8 h,0.5 h,4.6 h,"CCCC(CCC)C(=O)O [VPA, Valproic acid, reference compound]",–,–,–,–,–,–,–,–,no difference between VPA and placebo in relieving pain
